Experimental data: ChEMBL document CHEMBL4321843, “Discovery of small-molecule candidates against inflammatory bowel disease” (Eur J Med Chem, 2020)

Key:
Assay type in all cases: functional
Mus musculus [1] = test: Anti-colitis activity in C57BL/6 (B6) mouse model of DSS-induced colitis assessed as disease activity index at 100 mg/kg, ig pretreated for 3 days followed by DSS treatment for 7 days (reference value: 5.67 +/- 1.03)
Rattus norvegicus [2] = test: Anti-colitis activity in Sprague-Dawley rat model of acetic acid-induced colitis assessed as disease activity index at 50 mg/kg, po administered for 7 consecutive days and measured on day 8 (reference value: 3.9 +/- 0.4)
Rattus norvegicus [3] = test: Anti-colitis activity in Sprague-Dawley rat model of acetic acid-induced colitis assessed as colon mucosa damage index at 50 mg/kg, po administered for 7 consecutive days and measured on day 8 (reference value: 3.3 +/- 0.6)
Rattus norvegicus [4] = test: Anti-colitis activity in Sprague-Dawley rat model of acetic acid-induced colitis assessed as histological scores at 50 mg/kg, po administered for 7 consecutive days and measured on day 8 (reference value: 9.3 +/- 2.8)
Rattus norvegicus [5] = test: Antiinflammatory activity in Sprague-Dawley rat model of acetic acid-induced colitis assessed as reduction in IFNgamma level in serum at 50 mg/kg, po administered for 7 consecutive days and measured on day 8 by ELISA method
Mus musculus [6] = test: Anti-colitis activity in ICR mouse model of DSS-induced colitis assessed as inhibition of DSS-induced colorectum shortening at 6 mg, po for 14 days relative to control
Mus musculus [7] = test: Anti-colitis activity in ICR mouse model of DSS-induced colitis assessed as reduction in DSS-induced body weight loss at 6 mg, po for 14 days relative to control; parameters: scale not given: the % may be the effect or the level left

SMILES: O=C(O)[C@H]1O[C@@H](Oc2cc3oc(-c4ccccc4)cc(=O)c3c(O)c2O)[C@H](O)[C@@H](O)[C@@H]1O [BAICALIN]
- Activity_index (Mus musculus [1]): 3.33

SMILES: O=C(O[C@@H]1Cc2c(O)cc(O)cc2O[C@@H]1c1cc(O)c(O)c(O)c1)c1cc(O)c(O)c(O)c1 [EPIGALOCATECHIN GALLATE]
- Activity_index (Rattus norvegicus [2]): 1.1
- Activity_index (Rattus norvegicus [3]): 1.5
- Activity (Rattus norvegicus [4]): 4.6
- Activity (Rattus norvegicus [5]): 33.3 pg/mL

SMILES: O=c1c(O)c(-c2ccc(O)c(O)c2)oc2cc(O)cc(O)c12 [QUERCETIN]
- inhibition (INH) (Mus musculus [6]): 18%
- Activity (Mus musculus [7]): 21%

SMILES: C[C@@H]1O[C@@H](OC[C@H]2O[C@@H](Oc3c(-c4ccc(O)c(O)c4)oc4cc(O)cc(O)c4c3=O)[C@H](O)[C@@H](O)[C@@H]2O)[C@H](O)[C@H](O)[C@H]1O [RUTIN]
- inhibition (INH) (Mus musculus [6]): 73%
- Activity (Mus musculus [7]): 54%
